This is an account of results in patent US20260132115A1, “SUBSTITUTED 3-FLUOROBENZENEPROPANOATE COMPOUND AND PREPARATION METHOD THEREFOR, PHARMACEUTICAL COMPOSITION THEREOF, AND USE THEREOF” (TIANJIN GUDUI BIO-PHARM CO., LTD., priority 2022, published 2026).

The test system of experiment [1] is λ-Carrageenan-Induced Rat Toe Swelling. The experiment can be described thus: Anti-inflammatory effect on λ-carrageenan-induced rat toe swelling. The format is in vivo, SD rats. Particulars: 10 mg/kg intraperitoneal, 1 h before 1% λ-carrageenan; for inhibition in vivo at 10 mg/kg: Rattus norvegicus, ip. The protocol: Experimental method: Male SD rats weighing 150-160 g were randomly grouped, with 10 rats in each group. The rats were intraperitoneally injected with saline, the compounds of the present disclosure, and the control drug flurbiprofen or flurbiprofen axetil respectively, all of which were administered at a dose of 10 mg/kg and a dosing volume of 10 μL/g. At 1 h after administration, 100 μL of 1% λ-carrageenan was injected into the right hind toe of each rat to induce inflammation. Afterwards, the paw volume was measured every 1 h using a paw volume meter to calculate the swelling inhibition rate.

For experiment [2], the system named is Dry Yeast-Induced Rat Fever Models. The experiment is described as follows: Antipyretic effect on dry yeast-induced fever in rats. It is filed as in vivo, SD rats. The following applies: rectal temperature, 10 mg/kg intraperitoneal, 20 min before 20% dry yeast s.c. Here is the method:
Experimental method: Male SD rats, aged 4 weeks, were randomly grouped, with 10 rats in each group. […] The rats were intraperitoneally injected with saline, the compounds of the present disclosure or the control drug flurbiprofen respectively, all of which were administered at a dose of 10 mg/kg and a dosing volume of 10 μL/g. At 20 min after administration, 20% active dry yeast suspension was injected subcutaneously. After modeling, the rectal temperatures were measured at 4 h and 8 h.

Setting [3] is: 6 h, read-out: Toe Swelling Inhibition Rate at 6 h.
Setting [4] is: 24 h, read-out: Toe Swelling Inhibition Rate at 24 h.

Where two headings read alike, the source gives them in different places. Marks after values point to notes of the source that are not given here.

Take `C[C@H](C(=O)OCOC(=O)N1CCC(O)CC1)c1ccc(-c2ccccc2)c(F)c1` [Compound 31]: the values for the inhibition in vivo at 10 mg/kg in experiment [1] (setting [3]) and in experiment [1] (setting [4]) were 45.4% and 31.9%, respectively. The “Temp. at 4 h After Dosing” value in experiment [2] was 37.12 ± 0.30 °C. In addition, the “Temp. at 8 h After Dosing” value in experiment [2] came out at 37.22 ± 0.30 °C.
Turning to `CC(C(=O)OCOC(=O)N[C@@H](Cc1ccc(O)cc1)C(=O)O)c1ccc(-c2ccccc2)c(F)c1` (stereo partly shown) [Compound 7], the figures for the inhibition in vivo at 10 mg/kg in experiment [1] (setting [3]) and in experiment [1] (setting [4]) were 47.9% and 21.5%, respectively.
Take `CC(OC(=O)C(C)c1ccc(-c2ccccc2)c(F)c1)OC(=O)N1CCOCC1` (stereo not shown) [Compound 9]: in experiment [2], the “Temp. at 4 h After Dosing” value is 37.17 ± 0.23 °C and the “Temp. at 8 h After Dosing” value was found to be 37.10 ± 0.37 °C.
As to `CC(C(=O)OCOC(=O)CCCN1C(=O)C=CC1=O)c1ccc(-c2ccccc2)c(F)c1` (stereo not shown) [Compound 57], the inhibition in vivo at 10 mg/kg in experiment [1] (setting [3]) is 43.8%; in experiment [1] (setting [4]), 43.4%.
For `CC(C(=O)OCOC(=O)CCN1C(=O)CCC1=O)c1ccc(-c2ccccc2)c(F)c1` (stereo not shown) [Compound 55], the inhibition in vivo at 10 mg/kg was determined as 36.7% in experiment [1] (setting [3]) and 41.4% in experiment [1] (setting [4]).
On to `CC(C(=O)OCc1ccccc1O)c1ccc(-c2ccccc2)c(F)c1` (stereo not shown) [Compound 48], for which the inhibition in vivo at 10 mg/kg in experiment [1] (setting [3]) was determined as 44.1%. Besides, the inhibition in vivo at 10 mg/kg in experiment [1] (setting [4]) turned out to be 33.9%. Moreover, in experiment [2], the “Temp. at 4 h After Dosing” value was 37.11 ± 0.23 °C and the “Temp. at 8 h After Dosing” value was 37.21 ± 0.25 °C.
Turning to “Flurbiprofen axetil [reference compound]”, the “Toe Swelling Inhibition Rate at 6 h” value in experiment [1] (6 h) was 35.53%**. Besides, the “Toe Swelling Inhibition Rate at 24 h” value in experiment [1] (24 h) came out at 22.85%**.
For `CC(C(=O)OCOC(=O)N1C[C@@H](C)O[C@@H](C)C1)c1ccc(-c2ccccc2)c(F)c1` (stereo partly shown) [Compound 3], the results for the inhibition in vivo at 10 mg/kg in experiment [1] (setting [3]) and in experiment [1] (setting [4]) were 45.3% and 28.1%, respectively.
For `CC(C(=O)OCOC(=O)c1ccc(N(C)C)cc1O)c1ccc(-c2ccccc2)c(F)c1` (stereo not shown) [Compound 41], in experiment [1] (setting [3]), the inhibition in vivo at 10 mg/kg was 43%. The inhibition in vivo at 10 mg/kg in experiment [1] (setting [4]) was determined as 32.2%. In addition, in experiment [2], the “Temp. at 4 h After Dosing” value came to 37.19 ± 0.35 °C and the “Temp. at 8 h After Dosing” value was 37.30 ± 0.31 °C.
As to `CC(=O)N1CCN(C(=O)OCOC(=O)C(C)c2ccc(-c3ccccc3)c(F)c2)CC1` (stereo not shown) [Compound 15], in experiment [2], the “Temp. at 4 h After Dosing” value is 37.16 ± 0.16 °C and the “Temp. at 8 h After Dosing” value turned out to be 37.27 ± 0.24 °C.
For the compound `CC(C(=O)OCOC(=O)CCCCCN1C(=O)C=CC1=O)c1ccc(-c2ccccc2)c(F)c1` (stereo not shown) [Compound 53], the results for the inhibition in vivo at 10 mg/kg in experiment [1] (setting [3]) and in experiment [1] (setting [4]) were 69% and 75.2%, respectively. In addition, in experiment [2], the “Temp. at 4 h After Dosing” value was determined as 37.04 ± 0.20 °C. In addition, the “Temp. at 8 h After Dosing” value in experiment [2] is 37.02 ± 0.30 °C.
For `COc1cc(COC(=O)C(C)c2ccc(-c3ccccc3)c(F)c2)cc(OC)c1` (stereo not shown) [Compound 47], in that order: 49.3%, 33.9%, 37.17 ± 0.27 °C and 37.26 ± 0.22 °C.
For `CC(C)CN(CC(C)C)C(=O)OCOC(=O)C(C)c1ccc(-c2ccccc2)c(F)c1` (stereo not shown) [Compound 69], in that order: 65.9%, 70.6%, 37.09 ± 0.18 °C and 37.13 ± 0.27 °C.
Consider `CC(=O)Oc1ccccc1C(=O)OCOC(=O)C(C)c1ccc(-c2ccccc2)c(F)c1` (stereo not shown) [Compound 36], for which the inhibition in vivo at 10 mg/kg in experiment [1] (setting [3]) is 45.3%. Further, in experiment [1] (setting [4]), the inhibition in vivo at 10 mg/kg came to 28.1%. Besides, in experiment [2], the “Temp. at 4 h After Dosing” value came to 37.38 ± 0.31 °C and the “Temp. at 8 h After Dosing” value was determined as 37.24 ± 0.16 °C.
Regarding `CCCCN(CCCC)C(=O)OCOC(=O)C(C)c1ccc(-c2ccccc2)c(F)c1` (stereo not shown) [Compound 65], the inhibition in vivo at 10 mg/kg in experiment [1] (setting [3]) was 43.1%; in experiment [1] (setting [4]), 43.8%. Besides, the “Temp. at 4 h After Dosing” value in experiment [2] was 37.10 ± 0.20 °C. Further, the “Temp. at 8 h After Dosing” value in experiment [2] was found to be 37.24 ± 0.23 °C.
